Laboratory results: PMC10254045, “Elaboration of the Effective Multi-Target Therapeutic Platform for the Treatment of Alzheimer’s Disease Based on Novel Monoterpene-Derived Hydroxamic Acids” (International Journal of Molecular Sciences, 2023)
Like-named read-outs stand apart in the source and are kept apart here.

Tests used:
[1] = molecular target: T1, β-amyloid peptide 1-42 (Aβ1-42) (Homo sapiens, UniProt P05067); assay: Thioflavin T fluorescent analysis of Aβ1-42 aggregation; type: biochemical; details: 48 h, compounds 100 µM, Thioflavin T 10 µM, 48 h registration; read-out: prevention of the aggregation of Aβ1-42
T1 construct: the pathological form of β-amyloid peptide 1-42 (Sigma Aldrich); purchased Sigma Aldrich
T1 sequence (P05067 672-713 limits assumed): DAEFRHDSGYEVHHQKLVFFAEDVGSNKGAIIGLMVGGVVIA
Source text: The aggregation process of β-amyloid peptide 1-42 (Aβ1-42), caused by hydrophobic interactions of peptide monomers and, as a consequence, the formation of the most toxic polymorphic structure-oligomeric fragments of Aβ, was detected using the fluorescent dye Thioflavin T (Figure 4a). This method is the most widely used for selective staining and the identification of amyloid aggregates, which is confirmed by a large number of works. Fluorescence analysis using Thioflavin T made it possible to monitor the aggregation process of the pathological form of β-amyloid peptide 1-42 (Sigma Aldrich, St. Louis, MI, USA). The experimental protocol was carried out similarly to that described in [58] with some modifications. The registration of changes in the fluorescence of thioflavin T (10 µM, Sigma Aldrich, St. Louis, MI, USA) was performed on a multifunctional tablet analyzer Cytation™3 (BioTek Instruments, Inc., Winooski, VT, USA) at λex = 450 nm, λem = 480 nm. The fluorescence intensity of the solution without Aβ1-42 was subtracted from the fluorescence values of solutions containing protein, due to the need to subtract the background fluorescence.

[2] = molecular target: T2, HDAC6 (Homo sapiens, UniProt Q9UBN7); assay: Fluorimetric measurement of HDAC6 activity (FLUOR DE LYS kit); type: biochemical
T2 construct: purchased Enzo Life Sciences
T2 sequence (Q9UBN7 1-1215): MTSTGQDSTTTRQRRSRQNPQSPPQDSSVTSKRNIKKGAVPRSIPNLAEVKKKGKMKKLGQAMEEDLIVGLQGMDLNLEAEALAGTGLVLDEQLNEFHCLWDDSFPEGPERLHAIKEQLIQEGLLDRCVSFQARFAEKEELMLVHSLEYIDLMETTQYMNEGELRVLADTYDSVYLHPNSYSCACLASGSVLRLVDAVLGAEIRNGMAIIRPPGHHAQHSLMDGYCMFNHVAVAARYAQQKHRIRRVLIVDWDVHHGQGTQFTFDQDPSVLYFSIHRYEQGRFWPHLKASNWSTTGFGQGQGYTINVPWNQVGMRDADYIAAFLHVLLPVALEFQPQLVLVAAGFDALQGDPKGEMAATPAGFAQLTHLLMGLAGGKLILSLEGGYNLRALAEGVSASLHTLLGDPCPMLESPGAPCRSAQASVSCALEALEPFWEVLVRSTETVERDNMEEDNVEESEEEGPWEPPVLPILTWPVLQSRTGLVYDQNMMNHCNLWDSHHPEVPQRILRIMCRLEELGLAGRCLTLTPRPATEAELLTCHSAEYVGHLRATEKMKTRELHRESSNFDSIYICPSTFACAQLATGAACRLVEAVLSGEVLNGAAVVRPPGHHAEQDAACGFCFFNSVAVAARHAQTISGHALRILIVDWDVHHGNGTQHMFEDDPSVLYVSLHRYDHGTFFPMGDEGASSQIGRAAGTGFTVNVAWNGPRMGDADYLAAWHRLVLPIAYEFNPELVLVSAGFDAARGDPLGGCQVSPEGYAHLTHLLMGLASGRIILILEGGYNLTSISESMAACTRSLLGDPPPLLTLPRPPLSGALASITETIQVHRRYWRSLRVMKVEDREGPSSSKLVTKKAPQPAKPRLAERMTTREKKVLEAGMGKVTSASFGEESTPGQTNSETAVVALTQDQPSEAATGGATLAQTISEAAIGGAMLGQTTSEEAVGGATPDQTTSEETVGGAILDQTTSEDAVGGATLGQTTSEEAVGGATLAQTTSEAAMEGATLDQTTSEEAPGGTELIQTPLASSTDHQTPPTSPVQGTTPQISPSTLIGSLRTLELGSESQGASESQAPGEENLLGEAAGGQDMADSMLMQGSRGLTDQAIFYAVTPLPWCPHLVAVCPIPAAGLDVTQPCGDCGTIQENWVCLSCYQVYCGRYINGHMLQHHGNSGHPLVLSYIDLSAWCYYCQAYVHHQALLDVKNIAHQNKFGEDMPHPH

[3] = Cell viability, MTT test; type: cell-based; details: human, SH-SY5Y neuroblastoma cells, 24-h exposure, read-out: IC50 cytotoxic action
Description: The culture of human neuroblastoma cells (defined as SH-SY5Y) was cultured in DMEM with the addition of embryonic bovine serum (10%), 2 mM glutamine (DiaM, Moscow, Russia) and penicillin-streptomycin (100 U/Ml–100 µg/mL, PanEco, Moscow, Russia) in conditions of 5% CO2 in the air at 37 °C. Upon reaching 80% confluence, cells in the amount of 1 × 10^4 were placed in 96-well transparent plates and incubated under the same conditions for 24 h. After the incubation time, the cells were exposed to a 24-h exposure to various concentrations of hydroxamic acids dissolved in dimethyl sulfoxide (range from 1 to 100 µM). An equivalent volume of solvent was used as a control (final DMSO content = 1%).
Cell survival analysis was performed using MTT test. To do this, 3-(4,5-dimethylthiazol-2-yl)-2,5-diphenyltetrazolium bromide (MTT, 5 mg/mL, DiaM, Moscow, Russia) was introduced into all wells and incubated at 37 °C for 2 h to restore metabolically active cells of the yellow tetrazolium salt MTT to purple formazane crystals. The resulting formazane was then re-suspended in 200 µL DMSO per well. The optical density was recorded using a multifunctional Cytation™3 flatbed analyzer (BioTek Instruments, Inc., Winooski, VT, USA) at λ = 530 nm.

[4] = Oxygen radical absorbance capacity (ORAC); details: Trolox equivalent; compounds and Trolox 100 µM, AAPH 12 mM
Source text: (§1) DPPH is a stable chromogen radical, which is widely used to assess the antioxidant activity of biological objects, in particular when searching for potential therapeutic agents used to maintain the redox balance in the body and treat pathologies associated with the action of free radicals. In turn, the oxygen radical absorbance capacity (ORAC) analysis is based on the removal by potential antioxidants of peroxyl radicals generated by AAPH (2,2’-axobis-2-methyl-propanimidamide, dihydrochloride), preventing the degradation of the fluorescein probe.
The analysis of the absorption capacity of oxygen radicals was performed as described in [151], with some modifications. Trolox (Sigma Aldrich, St. Louis, MI, USA) was used as a standard antioxidant. The studied compounds were introduced into the holes of a 96-hole black tablet with a transparent bottom with Trolox (25 µL; the final concentration was 100 µM) and fluorescein (150 µL; the final concentration was 80 nM, Sigma Aldrich, St. Louis, MI, USA). The resulting mixture was shaken and incubated for 30 min at 37 °C. After a 30-min incubation period, a solution of 2,2’-azobis (2-amidinopropane) dihydrochloride (AAPH) (25 µL; final concentration of 12 mM, Sigma Aldrich, St. Louis, MI, USA) was quickly introduced into all wells of the tablet. The tablet was immediately placed in a multifunctional tablet analyzer Cytation™ 3 (BioTek Instruments, Inc., Winooski, VT, USA). The fluorescence intensity was recorded for 300 min at λex = 480 nm, λem = 520 nm with an interval of every 5 min. In the same experiment, calibration solutions for the reference antioxidant Trolox were used to confirm the validity of the use of this method (0, 6.25, 12.5, 25, 50 and 100 µM).

[5] = DPPH radical scavenging activity; details: Trolox equivalent; compounds and Trolox 100 µM
Source text: as §1
The measurement of the antiradical activity of synthesized hydroxamic acids was carried out using the method described in [150]. The studied compounds were introduced into the wells of a 96-well black tablet (the final concentration was 100 microns), after which a freshly prepared solution of 2,2-diphenyl-1-picrylhydrazyl (Sigma Aldrich, St. Louis, Missouri, USA) was added. After the incubation time had elapsed, the DPPH radical-scavenging activity was measured using a multifunctional Cytation™3 tablet analyzer (BioTek Instruments, Inc., Winooski, VT, USA) at λ = 517 nm by the difference in the reduction of the DPPH radical peak between control samples containing an equivalent volume of solvent and samples with the substances under study.

[6] = HDAC6, values as listed in Table S1 beside docking score, read-out: IC50

inhibition at 100 µM [1] | IC50 [2, 6] | melting point | IC50 ([2]; Table 1, read-out: HDAC6-Inhibitory Effect, IC50) | SMILES | IC50 at 24 h [3] | ORAC value (TE) [4] | DPPH value (TE) [5]
60.1% | 7.74 µM | 167.2 to 167.6 °C | – | C=C(C)[C@@H]1CC=C(CNC(=O)c2ccc(/C=C/C(=O)NO)cc2)CC1 [Compound 38a, (S,E)-4-(3-(hydroxyamino)-3-oxoprop-1-en-1-yl)-N-((4-(prop-1-en-2-yl)cyclohex-1-en-1-yl)methyl)benzamide] | > 100 µM | 1.00 TE | 0.66 TE
63.9% | – | 160.3 to 164.9 °C | 4.78 ± 0.04 µM | CC(C)c1ccc(CNC(=O)c2ccc(/C=C/C(=O)NO)cc2)cc1 [Compound 38b, (E)-4-(3-(hydroxyamino)-3-oxoprop-1-en-1-yl)-N-(4-isopropylbenzyl)benzamide] | > 100 µM | 1.04 TE | 0.79 TE
≤ 40% | 8.03 µM | 108.6 °C | – | CC1(C)[C@H]2CC[C@@H](CNC(=O)c3ccc(/C=C/C(=O)NO)cc3)[C@@H]1C2 [Compound 38c, N-(((1S,2R,5S)-6,6-dimethylbicyclo[3.1.1]heptan-2-yl)methyl)-4-((E)-3-(hydroxyamino)-3-oxoprop-1-en-1-yl)benzamide] | 90.5 ± 2.9 µM | 1.02 TE | 0.70 TE
